As usually defined, the EC50 is the concentration at which the effect is half-maximal. As a reminder, the Dmax is the greatest extent of degradation seen. For orientation: IC50 means the midpoint of a concentration-inhibition curve. A low value points to greater potency in that assay.

This note sets out measurements from publication PMC8994274, “A proteolysis-targeting chimera molecule selectively degrades ENL and inhibits malignant gene expression and tumor growth” (Journal of Hematology & Oncology, 2022).

Structures are written as SMILES.

One assay deals with U266 cells. Kind of assay: Antiproliferation assay (XTT), U266. As to conditions: Homo sapiens, U-266, 168 h, read-out: Antiproliferative activity, EC50, U266. A general note: Tetrazolium assays rely on reduction of a dye to a coloured formazan, in cell work by metabolically active cells.
The test system of another assay is RPMI-8226 cells. The assay can be described thus: Antiproliferation assay (XTT), RPMI-8226. As to conditions: Homo sapiens, RPMI-8226, 168 h, read-out: Antiproliferative activity, EC50, RPMI-8226.
A further assay deals with Panc1 cells. The assay can be described thus: Antiproliferation assay, Panc1. As to conditions: Homo sapiens, PANC-1, 168 h, read-out: Antiproliferative activity, EC50, Panc1.
In the next assay the target is T1, ENL (Homo sapiens, UniProt Q03111).
T1 sequence (Q03111 1-559): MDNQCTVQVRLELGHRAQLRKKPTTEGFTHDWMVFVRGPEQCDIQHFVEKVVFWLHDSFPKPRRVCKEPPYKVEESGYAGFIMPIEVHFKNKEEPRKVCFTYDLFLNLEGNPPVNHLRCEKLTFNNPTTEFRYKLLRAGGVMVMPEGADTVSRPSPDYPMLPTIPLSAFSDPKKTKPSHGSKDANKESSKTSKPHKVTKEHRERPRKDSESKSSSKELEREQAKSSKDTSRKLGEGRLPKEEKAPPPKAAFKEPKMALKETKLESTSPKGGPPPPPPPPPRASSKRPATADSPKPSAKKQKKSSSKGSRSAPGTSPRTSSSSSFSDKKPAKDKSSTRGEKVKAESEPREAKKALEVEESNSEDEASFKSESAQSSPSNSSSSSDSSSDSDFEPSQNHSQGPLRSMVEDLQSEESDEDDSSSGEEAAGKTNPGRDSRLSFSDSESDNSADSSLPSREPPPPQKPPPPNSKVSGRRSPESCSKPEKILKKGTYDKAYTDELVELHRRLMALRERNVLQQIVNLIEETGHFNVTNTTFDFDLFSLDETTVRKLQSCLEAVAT
The assay can be described thus: ChIP-qPCR, ENL at gene promoters of Myc and HoxA9. On the set-up: endogenous in cells; host or cells: MV4;11. In kind it is cell-based. As to conditions: MV4;11 cells, 500 nM, 4 days. As for the experimental part:
Chromatin immunoprecipitation (ChIP) followed by qPCR was used to further probe the activity of compound 1 in the gene promoters of Myc and HoxA9, two characteristic MLL1 target genes.
Upon treatment with a compound for 4 days, 10^7 MV4;11 cells were cross-linked with 1% formaldehyde at room temperature for 10 min, followed by the addition of 125 mM glycine. Cells were lysed with nuclear lysis buffer and sonicated to ~ 100–1000 bp fragments, which was incubated at 4 °C overnight with an antibody and IgG (C15410206, Diagenode). Protein A/G Magnetic Beads (10 µL, Novus Biologicals) were added and incubated for 2 h. The beads were washed 3 × with RIPA buffer and 2 × with TE buffer. DNA on the beads was eluted for 2 h at 68 °C in 100 μL of an elution buffer (20 mM Tris pH 7.5, 5 mM EDTA, 50 mM NaCl, 1% SDS, 50 μg/mL proteinase K) (2 ×), and purified using a ChIP DNA Clean & Concentrator kit (Novus Biologicals). qPCR was done using the method described above.
A general note: In qPCR the cycle at which signal appears reflects the starting amount.

In a further assay the target is T2, mutant ENL (mENL) (Homo sapiens, UniProt Q03111+Q96SW2, INS117NHL).
T2 construct: FLAG (DYK); expressed in transfected cells; host or cells: HEK293T
T2 sequence (Q03111 with tags, fused parts or gaps INS117NHL): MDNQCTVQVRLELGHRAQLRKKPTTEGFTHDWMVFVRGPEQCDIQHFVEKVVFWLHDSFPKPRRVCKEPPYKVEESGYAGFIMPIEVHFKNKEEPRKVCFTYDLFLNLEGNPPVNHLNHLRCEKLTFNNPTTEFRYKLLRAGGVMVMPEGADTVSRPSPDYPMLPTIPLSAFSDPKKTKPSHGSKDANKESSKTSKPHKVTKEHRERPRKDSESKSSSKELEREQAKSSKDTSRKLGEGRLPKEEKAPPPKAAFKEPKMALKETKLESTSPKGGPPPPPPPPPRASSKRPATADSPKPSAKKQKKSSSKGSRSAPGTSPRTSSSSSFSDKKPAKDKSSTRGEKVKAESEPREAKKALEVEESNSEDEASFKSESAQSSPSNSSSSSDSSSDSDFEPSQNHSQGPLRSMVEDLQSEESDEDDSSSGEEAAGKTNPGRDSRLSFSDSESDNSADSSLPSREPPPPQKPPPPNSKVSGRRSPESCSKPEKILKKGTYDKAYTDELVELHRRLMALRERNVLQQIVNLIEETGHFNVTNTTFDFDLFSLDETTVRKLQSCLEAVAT
T2 sequence (Q96SW2 whole entry, stated change not applied): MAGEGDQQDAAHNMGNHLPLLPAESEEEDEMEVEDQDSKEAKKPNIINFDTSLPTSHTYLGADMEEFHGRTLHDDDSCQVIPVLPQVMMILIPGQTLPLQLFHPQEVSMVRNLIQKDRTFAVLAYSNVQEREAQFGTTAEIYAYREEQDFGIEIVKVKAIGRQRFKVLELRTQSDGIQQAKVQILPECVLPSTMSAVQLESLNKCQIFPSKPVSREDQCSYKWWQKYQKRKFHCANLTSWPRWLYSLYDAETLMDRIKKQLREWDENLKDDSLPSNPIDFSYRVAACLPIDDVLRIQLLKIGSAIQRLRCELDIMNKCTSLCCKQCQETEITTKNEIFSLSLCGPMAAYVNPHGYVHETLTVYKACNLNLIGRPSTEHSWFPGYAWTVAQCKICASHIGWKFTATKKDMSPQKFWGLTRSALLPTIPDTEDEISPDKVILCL
T2 sequence (Q16531 whole entry partner): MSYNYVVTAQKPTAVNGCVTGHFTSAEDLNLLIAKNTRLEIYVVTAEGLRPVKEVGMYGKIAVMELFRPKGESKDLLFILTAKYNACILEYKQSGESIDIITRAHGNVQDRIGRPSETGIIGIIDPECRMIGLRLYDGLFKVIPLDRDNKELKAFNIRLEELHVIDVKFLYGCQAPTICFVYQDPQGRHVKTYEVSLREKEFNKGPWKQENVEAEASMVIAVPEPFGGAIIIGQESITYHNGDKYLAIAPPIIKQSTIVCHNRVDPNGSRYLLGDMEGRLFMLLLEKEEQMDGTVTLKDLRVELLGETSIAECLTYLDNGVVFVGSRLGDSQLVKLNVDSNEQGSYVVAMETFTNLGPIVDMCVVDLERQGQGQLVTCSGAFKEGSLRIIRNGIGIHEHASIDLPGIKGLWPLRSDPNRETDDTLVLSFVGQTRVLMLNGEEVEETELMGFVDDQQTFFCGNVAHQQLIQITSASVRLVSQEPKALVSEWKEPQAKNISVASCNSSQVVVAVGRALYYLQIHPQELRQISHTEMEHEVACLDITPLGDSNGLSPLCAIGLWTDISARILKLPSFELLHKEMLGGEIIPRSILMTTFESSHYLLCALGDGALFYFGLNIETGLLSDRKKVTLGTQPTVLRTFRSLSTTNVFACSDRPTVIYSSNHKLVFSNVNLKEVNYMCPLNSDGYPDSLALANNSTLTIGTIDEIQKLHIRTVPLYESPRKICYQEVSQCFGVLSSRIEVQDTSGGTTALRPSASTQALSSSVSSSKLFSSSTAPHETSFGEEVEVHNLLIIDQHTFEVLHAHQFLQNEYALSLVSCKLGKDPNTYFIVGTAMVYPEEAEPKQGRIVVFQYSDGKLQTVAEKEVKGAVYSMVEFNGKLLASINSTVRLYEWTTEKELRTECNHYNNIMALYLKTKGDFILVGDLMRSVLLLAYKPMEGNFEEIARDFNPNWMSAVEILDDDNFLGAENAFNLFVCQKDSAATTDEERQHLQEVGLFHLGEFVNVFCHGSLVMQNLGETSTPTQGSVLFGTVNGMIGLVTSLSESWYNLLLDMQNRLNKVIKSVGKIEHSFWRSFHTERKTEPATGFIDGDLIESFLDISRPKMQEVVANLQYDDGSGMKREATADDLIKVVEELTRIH
The assay can be described thus: Degradation of mutant and WT ENL in mENL-transfected HEK293T cells (Western blot). Type of assay: cell-based. The procedure:
Ability of compound 1 to degrade mutant ENL, which has been implicated to cause Wilms tumor, was evaluated. […] A pcDNA3.1(+)-N-DYK plasmid containing a mutant ENL (mENL) with a short insertion of -NHL- between L117 and R118 [38] was transfected into 5 × 10^5 HEK293T cells. Upon incubation for 24 h, expression of the FLAG-tagged mENL can be dose-dependently detected with as low as 0.04 μg of the plasmid (Fig. 7a). Using a FLAG antibody appeared to be less quantitative because of a higher background staining for the control samples (Fig. 7a–c, left panels).
With 0.1 μg of the plasmid, compound 1 can efficiently degrade both WT and mutant ENL proteins with Dmax of ~ 95% at ~ 500 nM upon 24 h incubation (Fig. 7b). […] It was ineffective with 1 μg of the plasmid (not shown), presumably because the rate of mENL synthesis in cells was higher than that of 1-mediated degradation.
5 × 10^5 HEK293T cells were transfected with mENL containing pcDNA3.1(+)-N-DYK plasmid using jetPRIME (Polyplus Transfection) following the manufacturer's protocol. Upon transfection for 4 h, the media were carefully removed and the cells incubated with fresh media containing the specified concentrations of compound 1 for 24 h before further analysis (using Western blot or qPCR as described above).

In another assay the target is T3, AF9 YEATS (Homo sapiens, UniProt P42568).
T3 sequence (P42568 1-138 limits assumed): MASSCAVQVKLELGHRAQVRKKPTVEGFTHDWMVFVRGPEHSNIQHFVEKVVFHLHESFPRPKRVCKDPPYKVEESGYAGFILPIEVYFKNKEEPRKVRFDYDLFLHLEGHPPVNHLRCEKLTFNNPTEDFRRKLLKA
The assay can be described thus: ALPHA assay, inhibition of the AF9 YEATS-H3K27ac interaction.

Description for AF9 YEATS: AlphaScreen binding assay was developed using Perkin-Elmer AlphaScreen Histidine (Nickel Chelate) Detection Kit, following a reported protocol [39]. Data were imported into Prism (version 5.0), and IC50 values from 3 independent experiments with standard deviation were obtained by using a standard dose–response curve fitting.
Protocol for RPMI-8226 cells: (§1) Proliferation inhibition assays for suspension blood cancer cells were performed using an XTT assay kit (Biotium), following our previous methods [22]. EC50 values were determined using Prism 5 and from at least three independent experiments.
Protocol for U266 cells: as §1

As to `C[C@H]1CCCN1Cc1nc2cc(NC(=O)c3ccc4c(cnn4CCCCCCCCNc4cccc5c4C(=O)N(C4CCC(=O)NC4=O)C5=O)c3)ccc2[nH]1` (some centres unmarked) [Compound 1], the half-maximal effective concentration (EC50) was 4.1 ± 1.8 µM in the assay with U266 cells, 1.2 ± 0.23 µM with RPMI-8226 cells and over 50 µM in the assay with Panc1 cells. Also, on ENL, the “ENL levels at gene promoters of Myc and HoxA9” value is given as “significantly reduced”. Besides, the “Degradation of WT and mutant ENLs” value on mutant ENL (mENL) (0.2 μg of the plasmid, 500 nM, 24 h) is “reduced efficiency”; at mutant ENL (mENL) (1 μg of the plasmid), “ineffective”. On mutant ENL (mENL) (HEK-293T, 0.1 μg of the plasmid, ~ 500 nM, 24 h), this compound came in with a Dmax of about 95%. For the same compound, the concentration for half-maximal inhibition (IC50) on AF9 YEATS worked out at 0.75 ± 0.015 µM.
